Test results taken from ChEMBL document CHEMBL4020831, “Discovery of GDC-0853: A Potent, Selective, and Noncovalent Bruton's Tyrosine Kinase Inhibitor in Early Clinical Development” (J Med Chem, 2018).
Values after ≈ are worked out from the molar mass of the structure shown. Active and inactive are the calls of the source. No cut-off for these calls is given here.

How the values were obtained:
[1] = Clearance in human hepatocytes at 1 uM incubated up to 60 mins by LC-MS/MS method; assay type: ADME, cell-based, Hepatocyte
[2] = tested on: Rattus norvegicus; assay: Antiinflammatory activity in Lewis rat collagen-induced arthritis model assessed as reduction in bone resorption at 0.06 to 16 mg/kg, po administered qd for 16 days; assay type: functional, organism-based
[3] = tested on: Salmonella typhimurium; assay: Genotoxicity in Salmonella typhimurium TA97a after 48 to 72 hrs in presence of liver S9 fraction by Ames test; assay type: toxicity; details: salmonella enterica subsp. enterica serovar typhimurium
[4] = tested on: Rattus norvegicus; assay: Time at which plasma concentration stays above in vitro IC70 for BTK autophosphorylation at Y223 in rat whole blood in Lewis rat collagen-induced arthritis model at 1 mg/kg, po bid measured during 24 hrs dosing
[5] = target: Nav1.5 (Homo sapiens, UniProt Q14524); assay: Inhibition of human Nav1.5 expressed in CHO cells at 10 uM incubated for 3 to 5 mins by QPatch clamp assay; assay type: cell-based; details: CHO cells expressing human Nav1.5
[6] = tested on: Rattus norvegicus; assay: Antiinflammatory activity in Lewis rat collagen-induced arthritis model assessed as reduction in ankle diameter AUC at 4 mg/kg, po administered qd for 16 days relative to control; assay type: functional; details: 384 h
[7] = tested on: Rattus norvegicus; assay: Antiinflammatory activity in po dosed Lewis rat collagen-induced arthritis model assessed as reduction in ankle thickness administered qd for 16 days; assay type: functional, organism-based
[8] = target: LTK (Homo sapiens, UniProt P29376); assay: Inhibition of recombinant human cytoplasmic GST-tagged LTK expressed in baculovirus at 1 uM by Z'-LYTE assay
LTK, sequence (P29376 whole entry): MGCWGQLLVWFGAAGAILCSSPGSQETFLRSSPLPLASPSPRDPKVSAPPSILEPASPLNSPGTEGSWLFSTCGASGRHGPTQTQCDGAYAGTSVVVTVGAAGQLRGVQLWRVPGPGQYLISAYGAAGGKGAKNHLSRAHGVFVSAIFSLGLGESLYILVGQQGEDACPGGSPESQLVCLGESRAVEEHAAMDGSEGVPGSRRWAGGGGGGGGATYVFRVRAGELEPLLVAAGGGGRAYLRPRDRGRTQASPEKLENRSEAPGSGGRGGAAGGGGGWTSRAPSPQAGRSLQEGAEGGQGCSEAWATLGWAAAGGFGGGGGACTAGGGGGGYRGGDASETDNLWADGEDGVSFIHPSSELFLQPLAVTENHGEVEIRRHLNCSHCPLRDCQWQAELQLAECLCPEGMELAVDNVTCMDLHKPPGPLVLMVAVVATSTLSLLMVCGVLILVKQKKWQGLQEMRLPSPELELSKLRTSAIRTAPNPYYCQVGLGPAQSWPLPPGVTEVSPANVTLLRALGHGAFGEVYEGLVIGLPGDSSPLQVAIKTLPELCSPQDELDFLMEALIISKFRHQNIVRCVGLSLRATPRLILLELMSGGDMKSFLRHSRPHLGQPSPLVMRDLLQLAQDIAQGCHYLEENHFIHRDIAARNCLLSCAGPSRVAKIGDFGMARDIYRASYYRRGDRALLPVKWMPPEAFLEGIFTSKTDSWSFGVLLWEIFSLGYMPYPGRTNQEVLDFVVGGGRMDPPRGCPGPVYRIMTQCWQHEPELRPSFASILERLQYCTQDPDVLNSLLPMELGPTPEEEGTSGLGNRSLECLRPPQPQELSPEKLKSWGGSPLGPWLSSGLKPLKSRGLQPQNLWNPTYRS

[9] = Aqueous solubility of the compound; assay type: physicochemical; details: buffer
[10] = tested on: Rattus norvegicus; assay: Antiinflammatory activity in Lewis rat collagen-induced arthritis model assessed as reduction in ankle cartilage damage at 0.125 to 2 mg/kg, po administered bid for 16 days; assay type: functional, organism-based
[11] = tested on: Homo sapiens; assay: Toxicity in human at 250 mg administered bid for 14 days; details: in vivo, 336 h
[12] = Half life in rat at 0.2 mg/kg, iv or 1 mg/kg, po administered as single dose via cassette dosing; assay type: ADME, organism-based; details: in vivo
[13] = target: Cytochrome P450 2C19 (Homo sapiens, UniProt P33261); assay: Inhibition of CYP2C19 (unknown origin); assay type: ADME
Cytochrome P450 2C19, sequence (P33261 whole entry): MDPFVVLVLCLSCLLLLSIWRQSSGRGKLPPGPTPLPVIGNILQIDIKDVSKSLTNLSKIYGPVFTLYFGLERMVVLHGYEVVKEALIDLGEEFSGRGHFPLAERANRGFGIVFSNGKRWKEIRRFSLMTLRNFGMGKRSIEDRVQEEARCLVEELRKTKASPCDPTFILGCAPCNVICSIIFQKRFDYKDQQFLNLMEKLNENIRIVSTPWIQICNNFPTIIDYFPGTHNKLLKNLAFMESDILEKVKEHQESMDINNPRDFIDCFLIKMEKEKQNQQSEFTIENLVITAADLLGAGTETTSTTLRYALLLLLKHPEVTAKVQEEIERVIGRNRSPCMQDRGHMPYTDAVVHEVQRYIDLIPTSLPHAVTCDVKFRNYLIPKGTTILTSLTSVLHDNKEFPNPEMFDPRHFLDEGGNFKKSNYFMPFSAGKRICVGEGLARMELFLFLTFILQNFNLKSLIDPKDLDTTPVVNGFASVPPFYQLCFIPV

[14] = tested on: Salmonella typhimurium; assay: Genotoxicity in Salmonella typhimurium TA98 after 48 to 72 hrs in absence of liver S9 fraction by Ames test; assay type: toxicity; details: salmonella enterica subsp. enterica serovar typhimurium
[15] = tested on: Escherichia coli; assay: Genotoxicity in Escherichia coli WP2 harboring uvrA deletion mutant after 48 to 72 hrs in presence of liver S9 fraction by Ames test; assay type: toxicity
[16] = tested on: Rattus norvegicus; assay: Antiinflammatory activity in po dosed Lewis rat collagen-induced arthritis model assessed as reduction in ankle thickness administered bid for 16 days; assay type: functional, organism-based
[17] = target: T1, Cav1.2 (Homo sapiens, UniProt Q13936); assay: Inhibition of human Cav1.2 expressed in CHO cells at 10 uM incubated for 3 to 5 mins by Qpatch clamp assay; assay type: cell-based; details: CHO cells expressing human Cav1.2
T1 sequence (Q13936 whole entry): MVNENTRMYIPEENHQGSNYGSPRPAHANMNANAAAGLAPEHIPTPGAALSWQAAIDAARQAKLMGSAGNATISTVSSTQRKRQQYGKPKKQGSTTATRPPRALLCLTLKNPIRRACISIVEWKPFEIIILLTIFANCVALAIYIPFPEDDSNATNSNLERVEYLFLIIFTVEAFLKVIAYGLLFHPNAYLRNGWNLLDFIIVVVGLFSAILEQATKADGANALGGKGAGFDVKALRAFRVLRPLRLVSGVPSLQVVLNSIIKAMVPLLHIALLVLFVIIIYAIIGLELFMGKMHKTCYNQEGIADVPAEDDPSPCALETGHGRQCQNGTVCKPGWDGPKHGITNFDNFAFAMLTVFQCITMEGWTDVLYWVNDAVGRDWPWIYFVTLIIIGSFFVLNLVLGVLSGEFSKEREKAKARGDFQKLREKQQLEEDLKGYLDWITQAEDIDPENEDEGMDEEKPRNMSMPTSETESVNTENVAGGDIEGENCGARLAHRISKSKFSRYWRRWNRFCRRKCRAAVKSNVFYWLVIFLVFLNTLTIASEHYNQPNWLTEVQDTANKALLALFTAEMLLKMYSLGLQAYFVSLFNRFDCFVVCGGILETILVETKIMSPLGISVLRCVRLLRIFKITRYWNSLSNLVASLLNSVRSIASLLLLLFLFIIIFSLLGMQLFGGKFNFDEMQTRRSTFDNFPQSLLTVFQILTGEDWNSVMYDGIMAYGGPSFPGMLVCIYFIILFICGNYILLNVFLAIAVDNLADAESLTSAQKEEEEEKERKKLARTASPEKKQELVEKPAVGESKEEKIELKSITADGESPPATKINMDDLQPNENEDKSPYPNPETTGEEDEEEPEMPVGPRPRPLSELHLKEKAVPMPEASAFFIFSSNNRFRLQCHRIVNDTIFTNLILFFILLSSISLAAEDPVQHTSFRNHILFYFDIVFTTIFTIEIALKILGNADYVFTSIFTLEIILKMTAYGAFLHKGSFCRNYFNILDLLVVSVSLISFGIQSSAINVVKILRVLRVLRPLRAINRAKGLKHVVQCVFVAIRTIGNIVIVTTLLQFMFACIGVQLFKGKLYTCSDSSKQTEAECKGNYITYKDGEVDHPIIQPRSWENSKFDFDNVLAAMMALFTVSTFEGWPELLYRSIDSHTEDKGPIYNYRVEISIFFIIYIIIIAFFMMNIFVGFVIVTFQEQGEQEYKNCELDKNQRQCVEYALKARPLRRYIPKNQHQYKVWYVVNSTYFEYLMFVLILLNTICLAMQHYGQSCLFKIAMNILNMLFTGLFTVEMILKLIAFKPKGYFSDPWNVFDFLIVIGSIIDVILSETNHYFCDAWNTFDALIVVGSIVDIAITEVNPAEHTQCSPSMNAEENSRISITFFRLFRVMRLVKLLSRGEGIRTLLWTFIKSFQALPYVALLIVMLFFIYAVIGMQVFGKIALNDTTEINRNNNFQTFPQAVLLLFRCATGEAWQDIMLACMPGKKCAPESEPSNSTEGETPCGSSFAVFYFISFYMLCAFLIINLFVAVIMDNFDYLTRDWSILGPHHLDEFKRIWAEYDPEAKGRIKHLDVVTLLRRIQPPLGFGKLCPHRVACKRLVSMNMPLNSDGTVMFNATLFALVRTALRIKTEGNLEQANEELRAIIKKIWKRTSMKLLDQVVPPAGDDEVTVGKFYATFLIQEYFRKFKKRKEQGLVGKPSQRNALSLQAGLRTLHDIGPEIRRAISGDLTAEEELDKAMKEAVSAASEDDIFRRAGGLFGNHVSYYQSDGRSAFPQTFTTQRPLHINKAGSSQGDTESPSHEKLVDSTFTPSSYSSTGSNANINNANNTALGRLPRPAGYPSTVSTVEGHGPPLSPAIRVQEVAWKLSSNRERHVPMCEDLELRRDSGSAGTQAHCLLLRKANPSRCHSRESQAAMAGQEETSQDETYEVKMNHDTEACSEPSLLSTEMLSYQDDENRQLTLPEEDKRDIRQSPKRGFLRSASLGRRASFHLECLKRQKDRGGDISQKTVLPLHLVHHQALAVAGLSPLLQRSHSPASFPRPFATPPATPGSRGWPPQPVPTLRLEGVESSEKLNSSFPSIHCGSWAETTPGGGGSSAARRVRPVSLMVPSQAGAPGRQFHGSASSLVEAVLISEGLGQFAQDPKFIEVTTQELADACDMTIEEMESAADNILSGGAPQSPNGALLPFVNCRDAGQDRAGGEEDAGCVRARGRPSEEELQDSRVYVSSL

[18] = tested on: Escherichia coli; assay: Genotoxicity in Escherichia coli WP2 harboring uvrA deletion mutant after 48 to 72 hrs in absence of liver S9 fraction by Ames test; assay type: toxicity
[19] = tested on: Rattus norvegicus; assay: Time at which plasma concentration stays above IC90 for BTK autophosphorylation at Y223 in rat whole blood in Lewis rat collagen-induced arthritis model at 0.125 to 2 mg/kg, po bid measured during 12 hrs dosing
[20] = tested on: Rattus norvegicus; assay: Antiinflammatory activity in Lewis rat collagen-induced arthritis model assessed as reduction in ankle inflammation at 0.06 to 16 mg/kg, po administered qd for 16 days; assay type: functional, organism-based
[21] = target: T1, Cav1.2; assay: Inhibition of human Cav1.2 expressed in CHO cells at 1 uM incubated for 3 to 5 mins by Qpatch clamp assay; assay type: cell-based; details: CHO cells expressing human Cav1.2
[22] = tested on: Rattus norvegicus; assay: Time at which plasma concentration stays above in vitro IC50 for BTK autophosphorylation at Y223 in rat whole blood in Lewis rat collagen-induced arthritis model at 1 to 16 mg/kg, po qd measured during 24 hrs dosing
[23] = tested on: Salmonella typhimurium; assay: Genotoxicity in Salmonella typhimurium TA100 after 48 to 72 hrs in absence of liver S9 fraction by Ames test; assay type: toxicity; details: salmonella enterica subsp. enterica serovar typhimurium
[24] = target: T2, JAK3 (Homo sapiens, UniProt P52333); assay: Inhibition of recombinant human catalytic GST-tagged JAK3 expressed in baculovirus at 1 uM by Z'-LYTE assay
T2 sequence (P52333 whole entry): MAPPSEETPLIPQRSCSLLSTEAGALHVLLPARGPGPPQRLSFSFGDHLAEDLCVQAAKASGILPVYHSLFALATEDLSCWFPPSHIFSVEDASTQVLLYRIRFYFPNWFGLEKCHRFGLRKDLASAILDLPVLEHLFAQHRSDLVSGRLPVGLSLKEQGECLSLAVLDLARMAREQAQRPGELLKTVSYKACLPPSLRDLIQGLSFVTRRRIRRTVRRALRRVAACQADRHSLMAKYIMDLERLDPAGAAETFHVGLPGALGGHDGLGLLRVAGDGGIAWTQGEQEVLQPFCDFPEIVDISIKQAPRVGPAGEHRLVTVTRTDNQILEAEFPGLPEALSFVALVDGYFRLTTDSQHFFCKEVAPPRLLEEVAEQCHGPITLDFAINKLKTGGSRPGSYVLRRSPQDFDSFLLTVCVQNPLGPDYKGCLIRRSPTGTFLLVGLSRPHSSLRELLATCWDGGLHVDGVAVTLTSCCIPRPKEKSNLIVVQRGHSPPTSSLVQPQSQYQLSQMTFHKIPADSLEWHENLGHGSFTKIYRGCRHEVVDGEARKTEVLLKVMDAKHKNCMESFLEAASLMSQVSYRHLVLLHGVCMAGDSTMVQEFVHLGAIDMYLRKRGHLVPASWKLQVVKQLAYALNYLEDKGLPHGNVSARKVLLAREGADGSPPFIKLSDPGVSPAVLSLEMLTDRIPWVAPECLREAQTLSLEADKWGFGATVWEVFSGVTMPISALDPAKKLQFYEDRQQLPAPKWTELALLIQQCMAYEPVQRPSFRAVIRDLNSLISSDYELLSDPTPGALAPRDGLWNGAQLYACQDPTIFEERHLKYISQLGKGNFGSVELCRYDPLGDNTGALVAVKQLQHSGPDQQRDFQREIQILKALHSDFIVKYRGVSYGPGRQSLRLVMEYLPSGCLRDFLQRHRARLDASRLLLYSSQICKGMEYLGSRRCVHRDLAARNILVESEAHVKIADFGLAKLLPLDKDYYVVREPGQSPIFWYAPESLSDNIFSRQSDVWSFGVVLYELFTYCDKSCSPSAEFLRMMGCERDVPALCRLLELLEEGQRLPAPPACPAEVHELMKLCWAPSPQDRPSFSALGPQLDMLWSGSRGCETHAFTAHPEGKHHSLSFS

[25] = tested on: Rattus norvegicus; assay: Antiinflammatory activity in Lewis rat collagen-induced arthritis model assessed as reduction in ankle diameter AUC at 0.25 mg/kg, po administered qd for 16 days relative to control; assay type: functional; details: 384 h
[26] = tested on: Homo sapiens; assay: Toxicity in human at 500 mg administered qd for 14 days; details: in vivo, 336 h
[27] = target: EGFR (Homo sapiens, UniProt P00533); assay: Inhibition of recombinant human cytoplasmic GST-tagged EGFR expressed in baculovirus at 1 uM by Z'-LYTE assay
EGFR, sequence (P00533 whole entry): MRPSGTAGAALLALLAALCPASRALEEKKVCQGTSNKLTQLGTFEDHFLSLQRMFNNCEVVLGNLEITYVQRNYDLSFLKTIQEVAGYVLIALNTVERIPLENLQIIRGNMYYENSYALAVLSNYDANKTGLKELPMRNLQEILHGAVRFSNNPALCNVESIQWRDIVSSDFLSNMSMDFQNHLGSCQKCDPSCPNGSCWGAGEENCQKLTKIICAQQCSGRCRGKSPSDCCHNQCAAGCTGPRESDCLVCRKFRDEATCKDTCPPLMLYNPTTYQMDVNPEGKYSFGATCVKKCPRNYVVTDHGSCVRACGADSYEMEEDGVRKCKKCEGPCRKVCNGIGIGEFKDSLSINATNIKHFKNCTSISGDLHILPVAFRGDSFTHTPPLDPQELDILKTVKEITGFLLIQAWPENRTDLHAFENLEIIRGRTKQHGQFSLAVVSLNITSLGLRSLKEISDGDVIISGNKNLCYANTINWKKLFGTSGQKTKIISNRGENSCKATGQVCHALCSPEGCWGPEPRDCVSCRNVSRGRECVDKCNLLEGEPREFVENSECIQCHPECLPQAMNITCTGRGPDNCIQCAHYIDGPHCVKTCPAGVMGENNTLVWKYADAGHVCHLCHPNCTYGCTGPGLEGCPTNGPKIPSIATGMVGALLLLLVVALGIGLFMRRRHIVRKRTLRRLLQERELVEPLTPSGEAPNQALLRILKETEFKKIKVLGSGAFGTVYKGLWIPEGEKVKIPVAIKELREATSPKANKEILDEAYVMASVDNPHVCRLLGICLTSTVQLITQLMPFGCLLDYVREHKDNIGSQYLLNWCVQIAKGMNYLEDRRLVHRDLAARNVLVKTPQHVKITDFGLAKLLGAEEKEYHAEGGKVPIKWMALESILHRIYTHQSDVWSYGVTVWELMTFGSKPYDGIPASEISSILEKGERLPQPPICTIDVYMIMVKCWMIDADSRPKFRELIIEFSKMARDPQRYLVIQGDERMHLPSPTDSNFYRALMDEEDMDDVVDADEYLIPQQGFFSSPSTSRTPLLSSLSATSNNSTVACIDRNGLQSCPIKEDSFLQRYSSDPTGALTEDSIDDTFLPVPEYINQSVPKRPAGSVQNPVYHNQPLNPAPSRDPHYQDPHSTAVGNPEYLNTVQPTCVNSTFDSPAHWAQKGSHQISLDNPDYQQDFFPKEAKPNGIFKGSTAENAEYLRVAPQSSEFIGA

Question: For `C[C@H]1CN(C2COC2)CCN1c1ccc(Nc2cc(-c3ccnc(N4CCn5c(cc6c5CC(C)(C)C6)C4=O)c3CO)cn(C)c2=O)nc1` [FENEBRUTINIB], which CLhep predicted at 1 µM [1] is on record?
Answer: 7.6 mL/min/kg

Question: What about the Activity [2] of the same compound?
Answer: Active

Question: And the Activity [3]?
Answer: Non-Toxic

Question: What about the Time [4] of the same compound?
Answer: 12 h

Question: And the inhibition at 10 µM [5]?
Answer: 1.9%

Question: And the inhibition in vivo at 4 mg/kg [6]?
Answer: 89%

Question: What about the Activity [7] of the same compound?
Answer: Dose-dependent effect

Question: And the inhibition at 1 µM [8]?
Answer: -1%

Question: And the solubility [9]?
Answer: 3 µg/mL (≈ 4.51 µM)

Question: And the Activity [10]?
Answer: Active

Question: What about the Activity [11] of the same compound?
Answer: Non-Toxic

Question: What about the half-life [12] of the same compound?
Answer: 2.2 h

Question: And the IC50 [13]?
Answer: > 5 µM

Question: What about the Activity [14] of the same compound?
Answer: Non-Toxic

Question: And the Activity [15]?
Answer: Non-Toxic

Question: And the Activity [16]?
Answer: Dose-dependent effect

Question: And the inhibition at 10 µM [17]?
Answer: 3.8%

Question: What about the Activity [18] of the same compound?
Answer: Non-Toxic

Question: And the Time [19]?
Answer: 6 h

Question: What about the Activity [20] of the same compound?
Answer: Active

Question: And the inhibition at 1 µM [21]?
Answer: 1.5%

Question: What about the Time [22] of the same compound?
Answer: 12 h

Question: What about the Activity [23] of the same compound?
Answer: Non-Toxic

Question: And the inhibition at 1 µM [24]?
Answer: 5%

Question: What about the inhibition in vivo at 0.25 mg/kg [25] of the same compound?
Answer: 26%

Question: And the Activity [26]?
Answer: Non-Toxic

Question: What about the inhibition at 1 µM [27] of the same compound?
Answer: -7%
